Measurements published in patent US10189845B2, “4,6-substituted-pyrazolo[1,5-a]pyrazines as janus kinase inhibitors” (ARRAY BIOPHARMA INC., priority 2014, dated 2019).
Read-outs that look alike come from different tables or passages of the source.

Legend:
Type in all cases: biochemical
[1] = molecular target: JAK1 (Homo sapiens (Human), UniProt P23458); experiment: JAK1 Inhibition Assay (Example B, Omnia kinase fluorescence peptide substrate assay)
Summary of the method: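 Recombinant human JAK1 (12.5 nM) with 1 mM ATP and 8 μM Omnia Y12 Sox-peptide in 25 mM HEPES pH 7.4, 10 mM MgCl2, 0.01% Triton X-100, 1 mM DTT, 2% DMSO final. Phosphorylation read kinetically (ex 360/em 485 nm, 45 min); IC50 from 4-parameter fit of percent of control.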

[2] = molecular target: JAK2 (Homo sapiens (Human), UniProt O60674); experiment: JAK2 Inhibition Assay (Example C, Omnia kinase fluorescence peptide substrate assay); conditions: JAK2 Enzyme IC50 1 mM ATP, averaged IC50 ranges
Sequence of JAK2 (O60674 whole entry): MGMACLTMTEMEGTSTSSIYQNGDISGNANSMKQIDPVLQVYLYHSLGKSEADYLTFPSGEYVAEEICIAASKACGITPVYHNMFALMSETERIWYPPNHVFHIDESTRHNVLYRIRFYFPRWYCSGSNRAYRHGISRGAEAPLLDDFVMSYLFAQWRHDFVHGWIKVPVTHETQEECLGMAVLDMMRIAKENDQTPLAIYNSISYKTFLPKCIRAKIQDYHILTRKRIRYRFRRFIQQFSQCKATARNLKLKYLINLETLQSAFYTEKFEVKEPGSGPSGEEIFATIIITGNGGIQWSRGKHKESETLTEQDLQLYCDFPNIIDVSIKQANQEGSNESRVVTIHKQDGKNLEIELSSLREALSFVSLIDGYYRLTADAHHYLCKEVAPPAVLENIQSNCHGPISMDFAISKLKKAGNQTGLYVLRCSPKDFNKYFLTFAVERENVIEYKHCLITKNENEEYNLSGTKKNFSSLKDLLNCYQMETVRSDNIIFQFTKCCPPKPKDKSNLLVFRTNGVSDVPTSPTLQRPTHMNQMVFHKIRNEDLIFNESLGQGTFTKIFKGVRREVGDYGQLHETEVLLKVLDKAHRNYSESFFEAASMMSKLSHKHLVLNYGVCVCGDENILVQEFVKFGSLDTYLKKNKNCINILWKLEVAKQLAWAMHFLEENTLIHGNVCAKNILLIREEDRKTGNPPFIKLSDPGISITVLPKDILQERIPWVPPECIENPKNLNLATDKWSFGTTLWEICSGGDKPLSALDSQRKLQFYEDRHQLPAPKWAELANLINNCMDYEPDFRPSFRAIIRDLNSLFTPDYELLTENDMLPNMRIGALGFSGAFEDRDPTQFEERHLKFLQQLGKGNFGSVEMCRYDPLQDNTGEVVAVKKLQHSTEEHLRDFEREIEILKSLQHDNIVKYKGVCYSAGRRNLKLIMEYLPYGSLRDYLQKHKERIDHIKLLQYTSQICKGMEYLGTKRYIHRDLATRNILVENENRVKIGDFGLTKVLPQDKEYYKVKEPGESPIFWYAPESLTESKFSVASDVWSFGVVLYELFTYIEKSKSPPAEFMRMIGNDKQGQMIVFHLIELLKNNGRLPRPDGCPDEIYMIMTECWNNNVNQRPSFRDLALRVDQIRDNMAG
Summary of the method: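 4 nM JAK2 with 1 mM ATP and 10 μM Omnia Y7 peptide in 25 mM HEPES pH 7.4, 10 mM MgCl2, 0.01% Triton X-100, 1 mM DTT, 2% DMSO. Sox fluorescence (ex 360/em 485 nm) read every 50 s for 45 min; IC50 from 4-parameter fit of percent of control.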

[3] = molecular target: JAK3 (Homo sapiens (Human), UniProt P52333); experiment: JAK3 Inhibition Assay (Example D, Omnia kinase fluorescence peptide substrate assay)
Sequence of JAK3 (P52333 whole entry): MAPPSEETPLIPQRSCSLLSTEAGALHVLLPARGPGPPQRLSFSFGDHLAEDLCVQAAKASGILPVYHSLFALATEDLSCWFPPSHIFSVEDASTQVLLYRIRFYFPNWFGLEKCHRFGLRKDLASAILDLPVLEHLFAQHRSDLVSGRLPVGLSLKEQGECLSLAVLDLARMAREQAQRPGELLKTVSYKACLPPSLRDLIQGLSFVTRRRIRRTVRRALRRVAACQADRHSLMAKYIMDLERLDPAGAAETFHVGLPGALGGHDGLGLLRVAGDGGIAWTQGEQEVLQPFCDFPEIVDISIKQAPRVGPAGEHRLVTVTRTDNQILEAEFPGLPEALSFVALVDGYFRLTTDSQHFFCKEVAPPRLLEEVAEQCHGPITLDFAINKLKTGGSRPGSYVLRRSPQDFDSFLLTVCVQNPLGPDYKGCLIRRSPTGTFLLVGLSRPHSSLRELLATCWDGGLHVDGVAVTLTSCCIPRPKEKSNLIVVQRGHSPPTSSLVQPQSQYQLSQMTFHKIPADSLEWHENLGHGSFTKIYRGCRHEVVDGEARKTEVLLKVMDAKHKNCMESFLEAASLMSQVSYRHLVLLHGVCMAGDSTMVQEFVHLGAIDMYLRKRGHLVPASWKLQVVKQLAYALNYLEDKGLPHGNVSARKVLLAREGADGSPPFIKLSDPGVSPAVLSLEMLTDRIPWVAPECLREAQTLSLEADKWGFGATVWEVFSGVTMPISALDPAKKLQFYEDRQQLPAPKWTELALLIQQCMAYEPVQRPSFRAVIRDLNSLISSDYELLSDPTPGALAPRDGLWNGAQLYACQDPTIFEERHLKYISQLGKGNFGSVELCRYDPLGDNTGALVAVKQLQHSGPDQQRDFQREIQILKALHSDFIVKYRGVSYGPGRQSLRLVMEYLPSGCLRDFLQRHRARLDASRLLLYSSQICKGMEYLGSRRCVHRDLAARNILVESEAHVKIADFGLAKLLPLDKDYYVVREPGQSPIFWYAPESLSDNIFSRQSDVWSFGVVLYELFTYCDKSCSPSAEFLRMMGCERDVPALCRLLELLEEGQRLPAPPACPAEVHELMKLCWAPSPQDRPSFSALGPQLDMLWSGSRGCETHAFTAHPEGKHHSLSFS
Summary of the method: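 Mixture held 2 nM JAK3, 1 mM ATP and 10 μM Omnia Y7 peptide in 25 mM HEPES pH 7.4, 10 mM MgCl2, 0.01% Triton X-100, 1 mM DTT, 2% DMSO final. Sox fluorescence (ex 360/em 485 nm) was read every 50 s for 45 min. IC50 came from a 4-parameter logistic fit of percent of control.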

[4] = molecular target: Human Tyk2 kinase domain (Homo sapiens (Human), UniProt P29597); experiment: Tyk2 Inhibition Assay (Example A, Omnia kinase fluorescence peptide substrate assay); conditions: TYK2 Enzyme IC50 1 mM ATP, averaged IC50 ranges
Sequence of Human Tyk2 kinase domain (P29597 886-1187): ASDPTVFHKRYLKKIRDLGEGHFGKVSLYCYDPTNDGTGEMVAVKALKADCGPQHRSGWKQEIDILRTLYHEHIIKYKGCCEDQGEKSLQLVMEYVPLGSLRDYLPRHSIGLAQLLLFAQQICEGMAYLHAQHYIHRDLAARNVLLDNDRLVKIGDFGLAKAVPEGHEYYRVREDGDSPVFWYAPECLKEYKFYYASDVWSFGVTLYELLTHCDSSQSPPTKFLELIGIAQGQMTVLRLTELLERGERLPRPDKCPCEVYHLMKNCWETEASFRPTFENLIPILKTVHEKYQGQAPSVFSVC
Summary of the method: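 Omnia Sox-peptide kinetic fluorescence assay (ex 360/em 485 nm, read every 50 s for 45 min) with 1 nM human Tyk2 kinase domain (aa 886–1187, His tag cleaved, baculovirus-expressed), 1 mM ATP, 8 μM Omnia Y12 peptide, in 25 mM HEPES pH 7.4, 10 mM MgCl2, 0.01% Triton X-100, 1 mM DTT, 2% DMSO. IC50 from 4-parameter logistic fit of percent of control.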

[5] = JAK1 Enzyme IC50 1 mM ATP, 1 mM ATP, averaged IC50 ranges

Sequence of JAK1 (P23458 whole entry): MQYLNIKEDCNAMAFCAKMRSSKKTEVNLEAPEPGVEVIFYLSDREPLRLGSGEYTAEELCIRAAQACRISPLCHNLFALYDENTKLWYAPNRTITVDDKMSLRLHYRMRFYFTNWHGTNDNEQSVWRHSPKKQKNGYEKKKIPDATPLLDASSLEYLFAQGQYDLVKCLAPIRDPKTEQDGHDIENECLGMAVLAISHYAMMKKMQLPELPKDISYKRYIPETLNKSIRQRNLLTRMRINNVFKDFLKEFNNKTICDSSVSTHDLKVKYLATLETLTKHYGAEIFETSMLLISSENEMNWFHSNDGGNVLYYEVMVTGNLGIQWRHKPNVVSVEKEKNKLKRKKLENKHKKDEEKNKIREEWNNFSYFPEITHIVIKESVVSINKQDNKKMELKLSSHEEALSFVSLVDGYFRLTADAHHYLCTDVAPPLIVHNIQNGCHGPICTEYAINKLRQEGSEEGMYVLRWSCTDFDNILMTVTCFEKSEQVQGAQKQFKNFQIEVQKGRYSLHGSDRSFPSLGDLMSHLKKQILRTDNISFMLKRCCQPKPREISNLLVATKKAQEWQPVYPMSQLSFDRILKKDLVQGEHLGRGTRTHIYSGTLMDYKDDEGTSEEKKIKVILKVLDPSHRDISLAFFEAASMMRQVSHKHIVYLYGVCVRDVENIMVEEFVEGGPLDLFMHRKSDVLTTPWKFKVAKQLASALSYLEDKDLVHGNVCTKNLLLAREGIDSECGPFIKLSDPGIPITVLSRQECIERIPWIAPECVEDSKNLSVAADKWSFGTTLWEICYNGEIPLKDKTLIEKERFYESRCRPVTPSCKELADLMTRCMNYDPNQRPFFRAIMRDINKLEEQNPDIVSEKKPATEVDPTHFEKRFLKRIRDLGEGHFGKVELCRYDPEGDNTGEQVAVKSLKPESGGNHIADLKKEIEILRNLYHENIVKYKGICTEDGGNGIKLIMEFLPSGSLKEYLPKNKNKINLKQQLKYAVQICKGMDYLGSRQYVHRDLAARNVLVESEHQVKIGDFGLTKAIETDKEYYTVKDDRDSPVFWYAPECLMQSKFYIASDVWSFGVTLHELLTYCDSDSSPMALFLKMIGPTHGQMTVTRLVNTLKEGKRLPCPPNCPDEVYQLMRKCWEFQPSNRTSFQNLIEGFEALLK

CCC(CC)n1cc(-c2nc(-c3cnn(CC4(CO)COC4)c3)cn3nccc23)cn1 [Example 16, (3-((4-(4-(1-(pentan-3-yl)-1H-pyrazol-4-yl)pyrazolo[1,5-a]pyrazin-6-yl)-1H-pyrazol-1-yl)methyl)oxetan-3-yl)methanol]
IC50 [1]: 10 to 100 nM | IC50 [2]: 10 to 100 nM | IC50 [3]: 1000 to 10000 nM | IC50 [4]: 10 to 100 nM

CCC(CC)n1cc(-c2nc(-c3cnn(CCN(C)C)c3)cn3nccc23)cn1 [Example 10, N,N-dimethyl-2-(4-(4-(1-(pentan-3-yl)-1H-pyrazol-4-yl)pyrazolo[1,5-a]pyrazin-6-yl)-1H-pyrazol-1-yl)ethanamine]
IC50 [1]: 1000 to 10000 nM | IC50 [2]: 10 to 100 nM | IC50 [3]: 1000 to 10000 nM | IC50 [4]: 10 to 100 nM

CCC(CC)n1cc(-c2nc(-c3cnn(CCN4CC(F)C4)c3)cn3nccc23)cn1 [Example 138, 6-(1-(2-(3-fluoroazetidin-1-yl)ethyl)-1H-pyrazol-4-yl)-4-(1-(pentan-3-yl)-1H-pyrazol-4-yl)pyrazolo[1,5-a]pyrazine]
IC50 [1]: 1000 to 10000 nM | IC50 [2]: 10 to 100 nM | IC50 [3]: 1000 to 10000 nM | IC50 [4]: 10 to 100 nM

CC[C@@H](C1CCC1)n1cc(-c2nc(-c3cnn(C[C@@H](O)CO)c3)cn3nccc23)cn1 (single isomer, unassigned) [Example 197]
IC50 [1, 5]: 100 to 1000 nM | IC50 [2]: 10 to 100 nM | IC50 [3]: 1000 to 10000 nM | IC50 [4]: 10 to 100 nM

CCC[C@H](C)n1cc(-c2nc(-c3cnn(C[C@@H](O)CO)c3)cn3nccc23)cn1 [Example 72, (R)-3-(4-(4-(1-((S)-pentan-2-yl)-1H-pyrazol-4-yl)pyrazolo[1,5-a]pyrazin-6-yl)-1H-pyrazol-1-yl)propane-1,2-diol]
IC50 [1, 5]: 100 to 1000 nM | IC50 [2]: 100 to 1000 nM | IC50 [3]: 1000 to 10000 nM | IC50 [4]: 100 to 1000 nM

CCC(CC)n1cc(-c2nc(-c3cnn(C4CN(C(=O)NC)C4)c3)cn3nccc23)cn1 [Example 39, N-methyl-3-(4-(4-(1-(pentan-3-yl)-1H-pyrazol-4-yl)pyrazolo[1,5-a]pyrazin-6-yl)-1H-pyrazol-1-yl)azetidine-1-carboxamide]
IC50 [1]: 10 to 100 nM | IC50 [2]: 10 to 100 nM | IC50 [3]: 1000 to 10000 nM | IC50 [4]: 10 to 100 nM

CCC(CC)n1cc(-c2nc(-c3cnn([C@H]4C[C@H](C(=O)N(C)C)C4)c3)cn3nccc23)cn1 [Example 169, (1r,3r)-N,N-dimethyl-3-(4-(4-(1-(pentan-3-yl)-1H-pyrazol-4-yl)pyrazolo[1,5-a]pyrazin-6-yl)-1H-pyrazol-1-yl)cyclobutanecarboxamide]
IC50 [1]: 1000 to 10000 nM | IC50 [2]: 100 to 1000 nM | IC50 [3]: 1000 to 10000 nM | IC50 [4]: 100 to 1000 nM

CCC(CC)n1cc(-c2nc(-c3cnn(CCO)c3)cn3nccc23)cn1 [Example 20, 2-(4-(4-(l-(pentan-3-yl)-1H-pyrazol-4-yl)pyrazolo[1,5-a]pyrazin-6-yl)-1H-pyrazol-1-yl)ethanol]
IC50 [1]: 10 to 100 nM | IC50 [2]: 10 to 100 nM | IC50 [3]: 1000 to 10000 nM | IC50 [4]: 10 to 100 nM

CC[C@@H](C)n1cc(-c2nc(-c3cnn(C4CCS(=O)(=O)CC4)c3)cn3nccc23)cn1 [Example 21, (R)-4-(4-(4-(1-(sec-butyl)-1H-pyrazol-4-yl)pyrazolo[1,5-a]pyrazin-6-yl)-1H-pyrazol-1-yl)tetrahydro-2H-thiopyran 1,1-dioxide]
IC50 [1]: 1000 to 10000 nM | IC50 [2]: 10 to 100 nM | IC50 [3]: 1000 to 10000 nM | IC50 [4]: 100 to 1000 nM

CCC(CC)n1cc(-c2nc(-c3cnn(CCN4CCNCC4=O)c3)cn3nccc23)cn1 [Example 147, 1-(2-(4-(4-(1-(pentan-3-yl)-1H-pyrazol-4-yl)pyrazolo[1,5-a]pyrazin-6-yl)-1H-pyrazol-1-yl)ethyl)piperazin-2-one]
IC50 [1]: 1000 to 10000 nM | IC50 [2]: 10 to 100 nM | IC50 [3]: 1000 to 10000 nM | IC50 [4]: 10 to 100 nM

CCC(CC)n1cc(-c2nc(-c3cnn(CCN[C@H]4CCN(C)C4=O)c3)cn3nccc23)cn1 [Example 142, (S)-1-methyl-3-((2-(4-(4-(1-(pentan-3-yl)-1H-pyrazol-4-yl)pyrazolo[1,5-a]pyrazin-6-yl)-1H-pyrazol-1-yl)ethyl)amino)pyrrolidin-2-one]
IC50 [1]: 1000 to 10000 nM | IC50 [2]: 10 to 100 nM | IC50 [3]: 1000 to 10000 nM | IC50 [4]: 10 to 100 nM

CCC(CC)n1cc(-c2nc(-c3cnn(C[C@@H](O)[C@@H](C)O)c3)cn3nccc23)cn1 [Example 59, (2R,3R)-1-(4-(4-(1-(pentan-3-yl)-1H-pyrazol-4-yl)pyrazolo[1,5-a]pyrazin-6-yl)-1H-pyrazol-l-yl)butane-2,3-diol]
IC50 [1, 5]: 100 to 1000 nM | IC50 [2]: 10 to 100 nM | IC50 [3]: 1000 to 10000 nM | IC50 [4]: 10 to 100 nM

CCC(CC)n1cc(-c2nc(-c3cnn(C[C@H](O)COC)c3)cn3nccc23)cn1 [Example 108, (S)-1-methoxy-3-(4-(4-(1-(pentan-3-yl)-1H-pyrazol-4-yl)pyrazolo[1,5-a]pyrazin-6-yl)-1H-pyrazol-1-yl)propan-2-ol]
IC50 [1]: 100 to 1000 nM | IC50 [2]: 10 to 100 nM | IC50 [3]: 1000 to 10000 nM | IC50 [4]: 10 to 100 nM

CCC(CC)n1cc(-c2nc(-c3cnn(C4CN(C(=O)N(C)C)C4)c3)cn3nccc23)cn1 [Example 40, N,N-dimethyl-3-(4-(4-(1-(pentan-3-yl)-1H-pyrazol-4-yl)pyrazolo[1,5-a]pyrazin-6-yl)-1H-pyrazol-1-yl)azetidine-1-carboxamide]
IC50 [1]: 100 to 1000 nM | IC50 [2]: 10 to 100 nM | IC50 [3]: 1000 to 10000 nM | IC50 [4]: 10 to 100 nM

Cn1cc(-c2cn3nccc3c(-c3cnn(C4CCCC4CO)c3)n2)cn1 (stereo not drawn) [Example 51, (2-(4-(6-(1-methyl-1H-pyrazol-4-yl)pyrazolo[1,5-a]pyrazin-4-yl)-1H-pyrazol-1-yl)cyclopentyl)methanol]
IC50 [1]: 1000 to 10000 nM | IC50 [2]: 1000 to 10000 nM | IC50 [3]: 1000 to 10000 nM | IC50 [4]: 100 to 1000 nM

CCC(CC)n1cc(-c2nc(-c3cnn([C@H](C)[C@@H](O)CO)c3)cn3nccc23)cn1 (single isomer, unassigned) [Example 92]
IC50 [1]: 100 to 1000 nM | IC50 [2]: 10 to 100 nM | IC50 [3]: 1000 to 10000 nM | IC50 [4]: 10 to 100 nM

CCC(CC)n1cc(-c2nc(-c3cnn(CC[C@H](O)CO)c3)cn3nccc23)cn1 [Example 62, (S)-4-(4-(4-(1-(pentan-3-yl)-1H-pyrazol-4-yl)pyrazolo[1,5-a]pyrazin-6-yl)-1H-pyrazol-1-yl)butane-1,2-diol]
IC50 [1, 5]: 100 to 1000 nM | IC50 [2]: 10 to 100 nM | IC50 [3]: 1000 to 10000 nM | IC50 [4]: 10 to 100 nM

CCC(CC)n1cc(-c2nc(-c3cnn(C[C@H](O)CO)c3)cn3nccc23)cn1 [Example 55, (S)-3-(4-(4-(1-(pentan-3-yl)-1H-pyrazol-4-yl)pyrazolor[1,5-a]pyrazin-6-yl)-1H-pyrazol-1-yl)propane-1,2-diol]
IC50 [1, 5]: 100 to 1000 nM | IC50 [2]: 100 to 1000 nM | IC50 [3]: 1000 to 10000 nM | IC50 [4]: 10 to 100 nM

CCC(CC)n1cc(-c2nc(-c3cnn(CCN4CCC(CO)CC4)c3)cn3nccc23)cn1 [Example 146, (1-(2-(4-(4-(1-(pentan-3-yl)-1H-pyrazol-4-yl)pyrazolo[1,5-a]pyrazin-6-yl)-1H-pyrazol-1-yl)ethyl)piperidin-4-yl)methanol]
IC50 [1]: 1000 to 10000 nM | IC50 [2]: 10 to 100 nM | IC50 [3]: 1000 to 10000 nM | IC50 [4]: 10 to 100 nM

CCC(CC)n1cc(-c2nc(-c3cnn(C[C@@H](CN)OC)c3)cn3nccc23)cn1 (single isomer, unassigned) [Example 148]
IC50 [1]: 1000 to 10000 nM | IC50 [2]: 100 to 1000 nM | IC50 [3]: 1000 to 10000 nM | IC50 [4]: 100 to 1000 nM

CCC(CC)n1cc(-c2nc(-c3cnn(C[C@H](O)CCO)c3)cn3nccc23)cn1 (single isomer, unassigned) [compound 201]
IC50 [1]: 1000 to 10000 nM | IC50 [2]: 10 to 100 nM | IC50 [3]: 1000 to 10000 nM | IC50 [4]: 10 to 100 nM

CCC(CC)n1cc(-c2nc(-c3cnn([C@H](C)[C@H](O)CO)c3)cn3nccc23)cn1 (single isomer, unassigned) [Example 90]
IC50 [1]: 100 to 1000 nM | IC50 [2]: 10 to 100 nM | IC50 [3]: 1000 to 10000 nM | IC50 [4]: 10 to 100 nM

CCC(CC)n1cc(-c2nc(-c3cnn(CC4(CO)CC4)c3)cn3nccc23)cn1 [Example 192, (1-((4-(4-(1-(pentan-3-yl)-1H-pyrazol-4-yl)pyrazolo[1,5-a]pyrazin-6-yl)-1H-pyrazol-1-yl)methyl)cyclopropyl)methanol]
IC50 [1, 5]: 10 to 100 nM | IC50 [2]: 10 to 100 nM | IC50 [3]: 1000 to 10000 nM | IC50 [4]: 10 to 100 nM

CC[C@H](n1cc(-c2nc(-c3cnn(C[C@@H](O)CO)c3)cn3nccc23)cn1)C(C)(F)F [Example 198, (R)-3-(4-(4-(1-((S)-2,2-difluoropentan-3-yl)-1H-pyrazol-4-yl)pyrazolo[1,5-a]pyrazin-6-yl)-1H-pyrazol-1-yl)propane-1,2-diol]
IC50 [1, 5]: 1000 to 10000 nM | IC50 [2]: 100 to 1000 nM | IC50 [3]: 1000 to 10000 nM | IC50 [4]: 100 to 1000 nM
